Patent publication US7786141B2 (Vertex Pharmaceuticals Incorporated, priority 2004, dated 2010)
Read-outs that look alike come from different tables or passages of the source.

Tests used:
M1 muscarinic receptor = molecular target: T1, M1 muscarinic receptor (Homo sapiens, UniProt P11229); experiment: Functional mobilization of intracellular calcium (FLIPR) in M1-CHO cells; assay type: cell-based
T1 construct: expressed in transfected cells; host or cells: CHO (M1-CHO)
T1 sequence (P11229 1-460): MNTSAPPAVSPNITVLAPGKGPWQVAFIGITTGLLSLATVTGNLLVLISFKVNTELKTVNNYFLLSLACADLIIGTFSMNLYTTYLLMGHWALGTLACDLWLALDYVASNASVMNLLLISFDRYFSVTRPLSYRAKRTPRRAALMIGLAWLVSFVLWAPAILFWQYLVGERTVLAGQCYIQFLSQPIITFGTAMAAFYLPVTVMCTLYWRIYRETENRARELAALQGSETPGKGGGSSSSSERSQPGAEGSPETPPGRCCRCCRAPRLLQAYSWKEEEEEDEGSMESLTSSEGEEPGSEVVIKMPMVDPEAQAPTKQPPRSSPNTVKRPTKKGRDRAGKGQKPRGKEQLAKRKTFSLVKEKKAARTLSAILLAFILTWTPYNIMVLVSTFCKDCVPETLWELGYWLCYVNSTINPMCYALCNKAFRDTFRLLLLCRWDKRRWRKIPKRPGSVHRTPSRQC
Outline: (§1)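 Intracellular calcium rise is measured by FLIPR fluorescence over 60 sec in CHO cells carrying human M1 or M4 receptors. Compounds are tested alone as agonists, or pre-incubated 15 min (or co-applied) ahead of carbachol at its EC80 to detect inhibition.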

M4 muscarinic receptor = molecular target: T2, M4 muscarinic receptor (Homo sapiens, UniProt P08173); experiment: Functional mobilization of intracellular calcium (FLIPR) in M4-CHO cells; assay type: cell-based
T2 construct: expressed in transfected cells; host or cells: CHO (M4-CHO)
T2 sequence (P08173 1-479): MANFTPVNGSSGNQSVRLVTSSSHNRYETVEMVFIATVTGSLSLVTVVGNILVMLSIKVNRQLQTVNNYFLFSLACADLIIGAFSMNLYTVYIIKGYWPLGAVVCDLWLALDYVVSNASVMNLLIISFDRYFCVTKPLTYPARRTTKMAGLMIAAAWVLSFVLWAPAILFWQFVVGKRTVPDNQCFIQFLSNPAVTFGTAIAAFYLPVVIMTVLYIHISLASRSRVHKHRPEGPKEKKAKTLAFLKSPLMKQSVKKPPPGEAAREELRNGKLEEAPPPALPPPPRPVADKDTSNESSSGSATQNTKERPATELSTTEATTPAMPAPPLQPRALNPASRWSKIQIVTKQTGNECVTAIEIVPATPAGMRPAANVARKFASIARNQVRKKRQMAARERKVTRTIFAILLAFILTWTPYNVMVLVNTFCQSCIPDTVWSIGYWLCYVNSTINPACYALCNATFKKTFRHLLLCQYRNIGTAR
Outline: as §1

[1] = M1 receptor, calcium mobilization
[2] = M1 receptor, calcium mobilization, read-out: M1 Efficacy
[3] = M4 receptor, calcium mobilization
[4] = M4 receptor, calcium mobilization, read-out: M4 Efficacy
[5] = Table 4, 100% efficacy is the maximum response obtained with the Carbachol control
[6] = Table 4, modulating M1 receptor
[7] = Table 4, modulating M4 receptor
[8] = Table 4, M1 receptor, calcium mobilization (FLIPR)
[9] = Table 4, M4 receptor, calcium mobilization (FLIPR)

SMILES	M1 Activity (M1 muscarinic receptor; [1])	Emax (M1 muscarinic receptor; [2]) [%]	M4 Activity (M4 muscarinic receptor; [3])	Emax (M4 muscarinic receptor; [4]) [%]	Emax (M1 muscarinic receptor; [5]) [%]	M1 Activity (M1 muscarinic receptor; [6])	Emax (M4 muscarinic receptor; [5]) [%]	M4 Activity (M4 muscarinic receptor; [7])	M1 Activity (M1 muscarinic receptor; [8])	M4 Activity (M4 muscarinic receptor; [9])
CCCOC(=O)N1CCC(CN2CCC3(CC2)CN(C(C)=O)c2ccc(C)cc23)CC1 [compound 306]	x (activity was measured to be greater than 1.0 μM)	< 65	x (activity was measured to be greater than 1.0 μM)	< 65						
O=C(C1CC1)N1CC2(CCN(C3CC4CCC(C3)N4C(=O)O[C@H]3CCOC3)CC2)c2cc(F)ccc21 (some centres unmarked) [compound 57]	xxx (activity was measured to be less than 0.1 μM)	65 to 85	xxx (activity was measured to be less than 0.1 μM)	65 to 85						
COC(=O)N1CCC(N2CCC3(CC2)CN(C(C)=O)c2ccccc23)CC1 [compound 753]					25 to 100	xx (activity was measured to be between 2.0 μM and 5.0 μM)	25 to 100	xx (activity was measured to be between 2.0 μM and 5.0 μM)		
Clc1ccc2c(c1)C1(CCN(CC3CC4C=CC3C4)CC1)C[C@@H]2NCC1CC2C=CC1C2 (some centres unmarked) [compound 788]					25 to 100	xx (activity was measured to be between 2.0 μM and 5.0 μM)	25 to 100	xx (activity was measured to be between 2.0 μM and 5.0 μM)		
C[C@H](O)CC(=O)N1CCC(N2CCC3(CC2)CN(C(=O)N(C)C)c2ccc(F)cc23)CC1 [compound 662]					25 to 100	x (activity was measured to be greater than 5.0 μM)	25 to 100	xx (activity was measured to be between 2.0 μM and 5.0 μM)		
CCC(C)(C)C1CCC(N2CCC3(CC2)CN(C(C)=O)c2ccc(F)cc23)CC1 (centres unmarked) [compound 892]					< 25		< 25		x (activity was measured to be greater than 5.0 μM)	x (activity was measured to be greater than 5.0 μM)
CC(=O)NC1CCC2(CCN(CCC3CCN(C(=O)N(C)C)CC3)CC2)c2ccccc21 (centres unmarked) [compound 999]					25 to 100		< 25		xxx (activity was measured to be less than 2.0 μM)	x (activity was measured to be greater than 5.0 μM)
CC1(C)C(=O)c2ccccc2C12CCN([C@H]1C[C@@H]3CC[C@@H]1C3)CC2 [compound 483]					< 25	x (activity was measured to be greater than 5.0 μM)	< 25	x (activity was measured to be greater than 5.0 μM)		
CC(=O)N1CC2(CCN(C3CCN(c4nccs4)CC3)CC2)c2ccccc21 [compound 894]					25 to 100		< 25		x (activity was measured to be greater than 5.0 μM)	x (activity was measured to be greater than 5.0 μM)
CCOC(=O)N1CC[C@@H](CN2CCC3(CC2)CN(C(C)=O)c2cccc(C)c23)C1 [compound 502]					25 to 100	xxx (activity was measured to be less than 2.0 μM)	25 to 100	xx (activity was measured to be between 2.0 μM and 5.0 μM)		
C#CCOC(=O)N1CCC(N2CCC3(CC2)CN(C(C)=O)c2ccc(C)cc23)CC1 [compound 81]	xx (activity was measured to be between 0.1 μM and 1.0 μM)	< 65	x (activity was measured to be greater than 1.0 μM)	< 65						
CCOC(=O)N1C2CCC1CC(N1CCC3(CC1)C(=O)N(C)c1ccccc13)C2 (centres unmarked) [compound 149]	xxx (activity was measured to be less than 0.1 μM)	> 85	x (activity was measured to be greater than 1.0 μM)	> 85						
CCOC(=O)N1CCC(N2CCC3(CC2)CN(C(=O)N(CC)CC)c2ccccc23)CC1 [compound 750]					25 to 100	xxx (activity was measured to be less than 2.0 μM)	25 to 100	xxx (activity was measured to be less than 2.0 μM)		
C#CCCOC(=O)N1CCC(N2CCC3(CC2)CN(CCOC)c2ccc(F)cc23)CC1 [compound 565]					25 to 100	xxx (activity was measured to be less than 2.0 μM)	25 to 100	xxx (activity was measured to be less than 2.0 μM)		
COC(=O)N1CCC(CCN2CCC3(CCC(NC(C)=O)c4ccccc43)CC2)CC1 (centres unmarked) [compound 875]					25 to 100		< 25		xxx (activity was measured to be less than 2.0 μM)	x (activity was measured to be greater than 5.0 μM)
CCOC(=O)N1CC[C@H](CN2CCC3(CC2)CN(C(=O)N(C)C)c2ccc(F)cc23)C1 [compound 695]					25 to 100	xxx (activity was measured to be less than 2.0 μM)	25 to 100	xxx (activity was measured to be less than 2.0 μM)		
CN(C)C(=O)N1CC2(CCN(C3CCN(C(=O)C4(C(F)(F)F)CC4)CC3)CC2)c2cc(F)ccc21 [compound 727]					25 to 100	x (activity was measured to be greater than 5.0 μM)	25 to 100	xxx (activity was measured to be less than 2.0 μM)		
COC(=O)N1CC[C@H](CN2CCC3(CC2)CN(C(C)=O)c2ccccc23)C1 [compound 680]					25 to 100	xx (activity was measured to be between 2.0 μM and 5.0 μM)	25 to 100	xxx (activity was measured to be less than 2.0 μM)		
C1=CC2CC1CC2CN1CCC2(CCCc3ccccc32)CC1 (centres unmarked) [compound 449]					25 to 100	xx (activity was measured to be between 2.0 μM and 5.0 μM)	25 to 100	xxx (activity was measured to be less than 2.0 μM)		
Cc1nsc(N2CC3(CCN(C4CC5CCC(C4)N5c4nc(C)ns4)CC3)c3ccccc32)n1 (centres unmarked) [compound 451]					25 to 100	xxx (activity was measured to be less than 2.0 μM)	25 to 100	xxx (activity was measured to be less than 2.0 μM)		
Cc1ccc2c(c1)C1(CCN(C3CC4CCC3C4)CC1)CN2C(=O)c1ccncc1 (centres unmarked) [compound 840]					< 25		< 25		x (activity was measured to be greater than 5.0 μM)	x (activity was measured to be greater than 5.0 μM)
CCOC(=O)N1C2CCC1CC(N1CCC3(CC1)c1ccccc1C(=O)C3(C)C)C2 (centres unmarked) [compound 278]	xx (activity was measured to be between 0.1 μM and 1.0 μM)	65 to 85	xx (activity was measured to be between 0.1 μM and 1.0 μM)	65 to 85						
COc1cc2c(cc1OC)C1(CCN(CC3CCCCC3)CC1)C[C@@H]2N(C(C)=O)[C@@H](C)c1ccccc1 [compound 931]					< 25		< 25		x (activity was measured to be greater than 5.0 μM)	x (activity was measured to be greater than 5.0 μM)
